Experimental data as given in US9688678B2, “Oxindole compounds carrying a nitrogen-bound spiro substituent and use thereof for treating vasopressin-related diseases” (AbbVie Deutschland GmbH & Co. KG, priority 2014, dated 2017).

How the values were obtained:
[1] = biological target: human vasopressin V1a receptor (Homo sapiens (Human), UniProt P37288); experiment: Vasopressin V1a receptor binding assay; settings: selectivity quotient, human V1a vs human V1b receptor
Procedure: The test substances were dissolved in a concentration of 5 mM M in DMSO. Further dilution of these DMSO solutions took place as described for V1b.
The membrane pellet was again homogenized in a High-Pressure-Homogenizer, Polytec 50K at 1500 PSI (Heinemann, Germany) and subsequently taken up in 50 mM Tris-HCl, pH 7.4, homogenized and stored in aliquots frozen in liquid nitrogen at −190° C.
(§1) The incubation buffer was: 50 mM Tris, 10 mM MgCl2, 0.1% BSA, pH 7.4.
Duplicate determinations were carried out.
After incubation (60 minutes at room temperature), the samples were processed as described for V1b.
(§2) The binding parameters were calculated by nonlinear regression in SAS.

[2] = biological target: human vasopressin V1b receptor (Homo sapiens (Human), UniProt P47901); experiment: Vasopressin V1b receptor binding assay; settings: membranes from CHO-K1 cells, displacement of 3H-AVP
Procedure: The test substances were dissolved in a concentration of 5 mM in 100% DMSO and further diluted to 5×10^−4 M to 5×10^−9 M. These serial DMSO predilutions were diluted 1:10 with assay buffer. The substance concentration was further diluted 1:5 in the assay mixture resulting in 2% DMSO in the mixture. All dilutions were performed in a Biomek NX automation workstation (Beckman)
The membrane pellet was again homogenized and centrifuged as described and subsequently taken up in 50 mM Tris-HCl, pH 7.4, homogenized and stored in aliquots frozen in liquid nitrogen at −190° C.
as §1
All determinations were carried out as duplicate determinations. […] The liquid scintillation measurement took place in a Microbeta TriLux 12 (Wallac). Analysis:
as §2

Sequence of human vasopressin V1b receptor (P47901 whole entry): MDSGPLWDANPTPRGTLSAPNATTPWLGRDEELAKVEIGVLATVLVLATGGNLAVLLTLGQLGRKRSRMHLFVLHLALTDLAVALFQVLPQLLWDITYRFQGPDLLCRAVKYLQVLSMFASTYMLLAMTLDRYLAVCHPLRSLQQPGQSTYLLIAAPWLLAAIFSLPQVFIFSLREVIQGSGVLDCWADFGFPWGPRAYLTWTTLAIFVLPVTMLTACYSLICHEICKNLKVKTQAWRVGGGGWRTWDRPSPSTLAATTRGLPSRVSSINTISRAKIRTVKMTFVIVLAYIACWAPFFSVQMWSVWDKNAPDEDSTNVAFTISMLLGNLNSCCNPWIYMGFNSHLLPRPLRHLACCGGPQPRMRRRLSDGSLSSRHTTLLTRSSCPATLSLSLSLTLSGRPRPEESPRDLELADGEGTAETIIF
Sequence of human vasopressin V1a receptor (P37288 whole entry): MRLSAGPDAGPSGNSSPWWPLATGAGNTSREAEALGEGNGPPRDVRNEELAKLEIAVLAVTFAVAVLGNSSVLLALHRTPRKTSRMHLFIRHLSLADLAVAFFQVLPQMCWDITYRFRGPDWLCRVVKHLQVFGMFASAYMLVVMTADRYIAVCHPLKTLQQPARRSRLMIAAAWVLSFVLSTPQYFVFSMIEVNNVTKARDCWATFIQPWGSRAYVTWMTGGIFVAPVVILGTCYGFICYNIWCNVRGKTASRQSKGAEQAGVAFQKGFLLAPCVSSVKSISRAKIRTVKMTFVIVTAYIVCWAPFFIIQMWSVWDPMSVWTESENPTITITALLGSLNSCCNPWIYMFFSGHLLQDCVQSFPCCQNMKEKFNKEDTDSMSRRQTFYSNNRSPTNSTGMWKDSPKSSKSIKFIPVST

Row | Compound | Ki(h-V1a)/ Ki(h-V1b) [1] | Ki [2] [nM]
1 | COc1ccc(S(=O)(=O)N2C(=O)C(c3ccccc3OC)(N3CC4(CN(C5CCN(C)CC5)C4)C3)c3cc(C#N)ccc32)nc1 (single isomer, unassigned; (+)) [Example 18A, (+)-3-(2-methoxyphenyl)-1-[(5-methoxy-2-pyridyl)sulfonyl]-3-[2-(1-methyl-4-piperidyl)-2,6-diazaspiro[3.3]heptan-6-yl]-2-oxo-indoline-5-carbonitrile] | + (10-<25) | < 1
2 | CCOc1ccc(OC)cc1C1(N2CC3(CN(C4CCN(C5COC5)CC4)C3)C2)C(=O)N(S(=O)(=O)c2ccc(OC)cn2)c2ccc(C#N)cc21 (racemic) [Example 10, (±)-3-(2-ethoxy-5-methoxy-phenyl)-1-[(5-methoxy-2-pyridyl)sulfonyl]-3-[2-[1-(oxetan-3-yl)-4-piperidyl]-2,6-diazaspiro[3.3]heptan-6-yl]-2-oxo-indoline-5-carbonitrile] | +++ (>75) | 1 to 10
3 | CCOc1ccc(OC)cc1C1(N2CC3(CN(C4CCN(C5COC5)CC4)C3)C2)C(=O)N(S(=O)(=O)c2ccc(OC)cn2)c2ccc(C#N)cc21 (single isomer, unassigned; (+)) [Example 11, (+)-3-(2-ethoxy-5-methoxyphenyl)-1-((5-methoxypyridin-2-yl)sulfonyl)-3-(6-(1-(oxetan-3-yl)piperidin-4-yl)-2,6-diazaspiro[3.3]heptan-2-yl)-2-oxoindoline-5-carbonitrile] | +++ (>75) | < 1
4 | CCOc1ccc(OC)cc1C1(N2CC3(CC(N4CCN(C5COC5)CC4)C3)C2)C(=O)N(S(=O)(=O)c2ccc(OC)cn2)c2ccc(C#N)cc21 (racemic) [Example 28, (±)-3-(2-ethoxy-5-methoxy-phenyl)-1-[(5-methoxy-2-pyridyl)sulfonyl]-3-[2-[4-(oxetan-3-yl)piperazin-1-yl]-6-azaspiro[3.3]heptan-6-yl]-2-oxo-indoline-5-carbonitrile] | +++ (>75) | 1 to 10
5 | COc1ccc(S(=O)(=O)N2C(=O)C(c3ccccc3OC)(N3CC4(CN(C5CCN(C)CC5)C4)C3)c3cc(C#N)ccc32)nc1 (racemic) [Example 18, (±)3-(2-methoxyphenyl)-1-[(5-methoxy-2-pyridyl)sulfonyl]-3-[2-(1-methyl-4-piperidyl)-2,6-diazaspiro[3.3]heptan-6-yl]-2-oxo-indoline-5-carbonitrile] | +++ (>75) | < 1
6 | CCOc1ncccc1C1(N2CC3(CN(C4CCN(C)CC4)C3)C2)C(=O)N(S(=O)(=O)c2ccc(OC)cn2)c2ccc(C#N)cc21 (single isomer, unassigned; (+)) [Example 9A, (+)-3-(2-ethoxy-3-pyridyl)-1-[(5-methoxy-2-pyridyl)sulfonyl]-3-[2-(1-methyl-4-piperidyl)-2,6-diazaspiro[3.3]heptan-6-yl]-2-oxo-indoline-5-carbonitrile] | +++ (>75) | < 1
7 | CCOc1ccc(OC)cc1C1(N2CC3(CC(N4CCN(C)CC4)C3)C2)C(=O)N(S(=O)(=O)c2ccc(OC)cn2)c2ccc(C#N)cc21 (single isomer, unassigned; (+)) [Example 17B, (+)-3-(2-ethoxy-5-methoxy-phenyl)-1-[(5-methoxy-2-pyridyl)sulfonyl]-3-[2-(4-methylpiperazin-1-yl)-6-azaspiro[3.3]heptan-6-yl]-2-oxo-indoline-5-carbonitrile] | +++ (>75) | < 1
8 | CCOc1cc(F)ccc1C1(N2CC3(CN(C4CCN(C)CC4)C3)C2)C(=O)N(S(=O)(=O)c2ccc(OC)cn2)c2ccc(C#N)cc21 (racemic) [Example 7, (±)-3-(2-ethoxy-4-fluoro-phenyl)-1-[(5-methoxy-2-pyridyl)sulfonyl]-3-[2-(1-methyl-4-piperidyl)-2,6-diazaspiro[3.3]heptan-6-yl]-2-oxo-indoline-5-carbonitrile] | +++ (>75) | 1 to 10
9 | CCOc1ccc(OC)cc1C1(N2CC3(CN(C4CCN(C(C)C)CC4)C3)C2)C(=O)N(S(=O)(=O)c2ccc(OC)cn2)c2ccc(C#N)cc21 (racemic) [Example 19, (±)-3-(2-ethoxy-5-methoxy-phenyl)-3-[2-(1-isopropyl-4-piperidyl)-2,6-diazaspiro[3.3]heptan-6-yl]-1-[(5-methoxy-2-pyridyl)sulfonyl]-2-oxo-indoline-5-carbonitrile] | +++ (>75) | < 1
10 | CCOc1ccccc1C1(N2CC3(CN(C4CCN(C)CC4)C3)C2)C(=O)N(S(=O)(=O)c2ccc(OC)cn2)c2ccc(C#N)cc21 (racemic) [Example 8, (±)-3-(2-ethoxyphenyl)-1-[(5-methoxy-2-pyridyl)sulfonyl]-3-[2-(1-methyl-4-piperidyl)-2,6-diazaspiro[3.3]heptan-6-yl]-2-oxo-indoline-5-carbonitrile] | +++ (>75) | 1 to 10
11 | CCOc1ccc(OC)cc1[C@]1(N2CC3(CN(C4CCN(C)CC4)C3)C2)C(=O)N(S(=O)(=O)c2ccccn2)c2ccc(C#N)cc21 [Example 33, (3S)-3-(2-ethoxy-5-methoxy-phenyl)-3-[2-(1-methyl-4-piperidyl)-2,6-diazaspiro[3.3]heptan-6-yl]-2-oxo-1-(2-pyridylsulfonyl)indoline-5-carbonitrile] | +++ (>75) | 1 to 10
12 | CCOc1ccc(OC)cc1C1(N2CC3(CN(C4CCN(C)CC4)C3)C2)C(=O)N(S(=O)(=O)c2cccc3cccnc23)c2ccc(C#N)cc21 (racemic) [Example 3, (±)-3-(2-ethoxy-5-methoxy-phenyl)-3-[2-(1-methyl-4-piperidyl)-2,6-diazaspiro[3.3]heptan-6-yl]-2-oxo-1-(8-quinolylsulfonyl)indoline-5-carbonitrile] | +++ (>75) | 10 to 100

Second part, the compound after the results:

Row | Ki(h-V1a)/ Ki(h-V1b) [1] | Ki [2] [nM] | Compound
13 | + (10-<25) | < 1 | COc1ccc(S(=O)(=O)N2C(=O)C(c3cc(OC)ccc3OC)(N3CC4(CN(C5CCN(C)CC5)C4)C3)c3cc(C#N)ccc32)nc1 (racemic) [Example 21, (±)-3-(2,5-dimethoxyphenyl)-1-[(5-methoxy-2-pyridyl)sulfonyl]-3-[2-(1-methyl-4-piperidyl)-2,6-diazaspiro[3.3]heptan-6-yl]-2-oxo-indoline-5-carbonitrile]
14 | ++ (25-75) | 10 to 100 | CCOc1ccc(OC)cc1C1(N2CC3(CN(C4CCN(C)CC4)C3)C2)C(=O)N(S(=O)(=O)c2ccc(C)cc2)c2ccc(C#N)cc21 (racemic) [Example 15, (±)-3-(2-ethoxy-5-methoxy-phenyl)-3-[2-(1-methyl-4-piperidyl)-2,6-diazaspiro[3.3]heptan-6-yl]-2-oxo-1-(p-tolylsulfonyl)indoline-5-carbonitrile]
15 | + (10-<25) | 1 to 10 | CCOc1ccc(OC)cc1C1(N2CC3(CN(C4CCN(C)CC4)C3)C2)C(=O)N(S(=O)(=O)c2ccc(OC)cc2)c2ccc(C#N)cc21 (racemic) [Example 5, (±)-3-(2-ethoxy-5-methoxy-phenyl)-1-(4-methoxyphenyl)sulfonyl-3-[2-(1-methyl-4-piperidyl)-2,6-diazaspiro[3.3]heptan-6-yl]-2-oxo-indoline-5-carbonitrile]
16 | + (10-<25) | 1 to 10 | CCOc1ccc(OC)cc1[C@]1(N2CC3(CN(C4CCN(C)CC4)C3)C2)C(=O)N(S(=O)(=O)c2ccc(OC)nc2)c2ccc(C#N)cc21 [Example 31, (3S)-3-(2-ethoxy-5-methoxy-phenyl)-1-[(6-methoxy-3-pyridyl)sulfonyl]-3-[2-(1-methyl-4-piperidyl)-2,6-diazaspiro[3.3]heptan-6-yl]-2-oxo-indoline-5-carbonitrile]
17 | ++ (25-75) | 10 to 100 | CCOc1ccc(OC)cc1C1(N2CC3(CN(C4CCN(C)CC4)C3)C2)C(=O)N(S(=O)(=O)c2ccc(F)cc2)c2ccc(C#N)cc21 (racemic) [Example 16, (±)-3-(2-ethoxy-5-methoxy-phenyl)-1-(4-fluorophenyl)sulfonyl-3-[2-(1-methyl-4-piperidyl)-2,6-diazaspiro[3.3]heptan-6-yl]-2-oxo-indoline-5-carbonitrile]
18 | ++ (25-75) | 10 to 100 | CCOc1ccc(OC)cc1C1(N2CC3(CN(C4CCN(C)CC4)C3)C2)C(=O)N(S(=O)(=O)c2ccc(OC)cc2OC)c2ccc(C#N)cc21 (racemic) [Example 2, (±)-1-(2,4-dimethoxyphenyl)sulfonyl-3-(2-ethoxy-5-methoxy-phenyl)-3-[2-(1-methyl-4-piperidyl)-2,6-diazaspiro[3.3]heptan-6-yl]-2-oxo-indoline-5-carbonitrile]
19 | +++ (>75) | < 1 | CCOc1ccc(OC)cc1[C@]1(N2CC3(CN(C4CCN(C)CC4)C3)C2)C(=O)N(S(=O)(=O)c2ccc(Cl)cn2)c2ccc(C#N)cc21 [Example 34, (3S)-1-[(5-chloro-2-pyridyl)sulfonyl]-3-(2-ethoxy-5-methoxy-phenyl)-3-[2-(1-methyl-4-piperidyl)-2,6-diazaspiro[3.3]heptan-6-yl]-2-oxo-indoline-5-carbonitrile]
